Measurements as given in the supplement of paper PMC10307832.

Tests used:
Assay in all cases: relative viability (nuclei count vs DMSO), 5 days (fraction); higher = more cells survive
[1] = compound: C(C(=O)C(=O)O)Br [Bromopyruvate] + C[C@@H](Oc1cc(-c2cnn(C3CCNCC3)c2)cnc1N)c1c(Cl)ccc(F)c1Cl [Crizotinib] (partner 1 µM)
Method in brief: (§1)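 Nuclei were stained with Hoechst during a one-step fixation (final 0.05% Triton X-100, 1% formaldehyde, 1 ug/ml Hoechst) carried out 5 days after dosing, then counted on 4× images. The cells, lung cancer lines in 1536-well plates, had been dosed by pin tool the day after seeding with one drug alone or a fixed anchor-drug dose plus five library-drug doses (not always all listed) in √10 steps. Relative viability is the nuclei count in treated wells divided by that in vehicle wells, and each value is the median of duplicate plates.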

[2] = compound: C(C(=O)C(=O)O)Br [Bromopyruvate] + C[C@]1(O)C[C@@H](c2nc(-c3ccc4ccc(-c5ccccc5)nc4c3)c3c(N)nccn32)C1 [Linsitinib] (partner 1 µM)
Method in brief: as §1

[3] = compound: CC(O)(CS(=O)(=O)c1ccc(F)cc1)C(=O)Nc1ccc(C#N)c(C(F)(F)F)c1 [Bicalutamide] + Nc1ncn([C@H]2C[C@H](O)[C@@H](CO)O2)c(=O)n1 [Decitabine] (partner 2 µM)
Method in brief: as §1

[4] = compound: CC(O)(CS(=O)(=O)c1ccc(F)cc1)C(=O)Nc1ccc(C#N)c(C(F)(F)F)c1 [Bicalutamide] + CC(=O)c1c(C)c2cnc(Nc3ccc(N4CCNCC4)cn3)nc2n(C2CCCC2)c1=O [Palbociclib] (partner 0.5 µM)
Method in brief: as §1

Cell Line	relative viability ([1]; first compound 1 µM)	relative viability ([1]; first compound 3.162 µM)	relative viability ([1]; first compound 10 µM)	relative viability ([1]; first compound 31.62 µM)	relative viability ([1]; first compound 100 µM)	relative viability ([2]; first compound 1 µM)	relative viability ([2]; first compound 3.162 µM)	relative viability ([2]; first compound 10 µM)	relative viability ([2]; first compound 31.62 µM)	relative viability ([2]; first compound 100 µM)	relative viability ([3]; first compound 0.08 µM)	relative viability ([3]; first compound 0.253 µM)	relative viability ([3]; first compound 0.8 µM)	relative viability ([3]; first compound 2.53 µM)	relative viability ([4]; first compound 0.08 µM)	relative viability ([4]; first compound 0.253 µM)	relative viability ([4]; first compound 0.8 µM)	relative viability ([4]; first compound 2.53 µM)
PC-14	0.991	0.868	0.826	0.966	0.997	1.03	1.01	0.938	0.944	1.04	0.243	0.182	0.239	0.204	0.583	0.466	0.677	0.422
RERF-LC-KJ	0.771	0.82	0.855	0.813	0.891	0.885	0.935	0.952	0.906	0.933	0.745	0.631	0.837	0.66	1.08	1.05	1.17	0.865
SK-LU-1	1.05	0.99	0.831	0.856	0.794	1.02	1.09	1.12	0.964	1.09	0.689	0.611	0.791	0.61	0.403	0.452	0.43	0.378
SK-MES-1	0.974	0.952	1.02	0.997	1.05	1.07	1.05	1.08	0.941	1.06	0.497	0.374	0.405	0.416	0.319	0.3	0.3	0.281
SW 1573	1.02	0.815	0.76	0.803	0.57	0.839	0.842	0.794	0.776	0.651	0.664	0.457	0.659	0.441	0.418	0.451	0.457	0.351
